Results published in US7696383B2 (Solvay Pharmaceuticals B.V., priority 2007, dated 2010).
Marks after values point to notes of the source that are not given here. Each block holds one compound with its values, some of them ahead of it.

Experiments:
dopamine reuptake sites = dopamine reuptake sites (Homo sapiens, UniProt Q01959); assay: In vitro affinity for dopamine reuptake sites; type: binding; conditions: for Ki: read-out: Dopamine binding pKi (converted)
Source text: (§1) In vitro affinity for neurotransmitter reuptake sites were either obtained by CEREP (128, rue Danton, 92500 Rueil-Malmaison, France) or at Solvay Pharmaceuticals B. V. (C. J. van Houtenlaan 36, 1381 CP Weesp, The Netherlands), using well documented procedures. Measured were affinities for serotonin (Tatsumi, 1999), norepinephrine (Pacholczyk, 1991) and dopamine reuptake sites (Pristupa, 1994).

[3H]-dopamine reuptake = biological target: T1, [3H]-dopamine reuptake (Rattus norvegicus, UniProt P23977); assay: In vitro functional inhibition of [3H]-dopamine reuptake, striatum synaptosomes; type: biochemical; conditions: for IC50: read-out: Dopamine inhibition pIC50 (converted)
T1 construct: the striatum was rapidly removed and a crude synaptosomal fraction (P2) was prepared; from tissue; host or cells: rat striatum, crude P2 synaptosomal fraction
T1 sequence (P23977 whole entry): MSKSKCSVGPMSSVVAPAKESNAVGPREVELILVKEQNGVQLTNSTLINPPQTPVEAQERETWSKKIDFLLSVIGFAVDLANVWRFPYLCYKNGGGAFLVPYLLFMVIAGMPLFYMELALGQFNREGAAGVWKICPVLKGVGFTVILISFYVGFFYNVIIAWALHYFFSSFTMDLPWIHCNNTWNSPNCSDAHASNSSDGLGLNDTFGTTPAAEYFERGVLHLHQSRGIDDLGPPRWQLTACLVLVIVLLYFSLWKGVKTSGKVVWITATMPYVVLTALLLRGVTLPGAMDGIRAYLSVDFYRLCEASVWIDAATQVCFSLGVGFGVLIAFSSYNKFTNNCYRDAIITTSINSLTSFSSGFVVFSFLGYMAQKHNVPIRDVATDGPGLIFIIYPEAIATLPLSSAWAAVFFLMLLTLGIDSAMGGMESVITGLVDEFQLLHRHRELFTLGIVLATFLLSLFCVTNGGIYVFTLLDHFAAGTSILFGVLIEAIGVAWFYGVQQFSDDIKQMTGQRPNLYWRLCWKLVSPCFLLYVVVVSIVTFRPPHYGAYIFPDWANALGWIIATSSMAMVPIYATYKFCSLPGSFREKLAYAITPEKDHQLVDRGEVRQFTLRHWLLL
Procedure: In vitro functional inhibition of [^3H]-dopamine reuptake: male rats (Wistar Hsd/Cpb: WU; 175-200 g) were decapitated; the striatum was rapidly removed and a crude synaptosomal fraction (P2) was prepared by homogenization and centrifugation. Synaptosomes were pre-incubated in absence or presence of the test compound for 15 min at 37° C., in a medium containing the monoamine oxidase inhibitor pargyline (7×10^−6 M) (Coyle, 1969). Subsequently, [^3H]-dopamine (2×10^−7 M final concentration) was added and incubation was continued for 10 min. [^3H]-dopamine uptake was stopped by filtration and the synaptosomes were washed four times with phosphate buffered saline. The amount of [^3H]-dopamine in the synaptosomes was determined by Betaplate liquid scintillation counting. […] Inhibition of DA uptake was performed in duplicate.

[1] = biological target: norepinephrine reuptake sites (Homo sapiens, UniProt P23975); assay: In vitro affinity for norepinephrine reuptake sites; type: binding; conditions: for Ki: read-out: Noradrenaline binding pKi (converted)
Chain of norepinephrine reuptake sites (P23975 whole entry): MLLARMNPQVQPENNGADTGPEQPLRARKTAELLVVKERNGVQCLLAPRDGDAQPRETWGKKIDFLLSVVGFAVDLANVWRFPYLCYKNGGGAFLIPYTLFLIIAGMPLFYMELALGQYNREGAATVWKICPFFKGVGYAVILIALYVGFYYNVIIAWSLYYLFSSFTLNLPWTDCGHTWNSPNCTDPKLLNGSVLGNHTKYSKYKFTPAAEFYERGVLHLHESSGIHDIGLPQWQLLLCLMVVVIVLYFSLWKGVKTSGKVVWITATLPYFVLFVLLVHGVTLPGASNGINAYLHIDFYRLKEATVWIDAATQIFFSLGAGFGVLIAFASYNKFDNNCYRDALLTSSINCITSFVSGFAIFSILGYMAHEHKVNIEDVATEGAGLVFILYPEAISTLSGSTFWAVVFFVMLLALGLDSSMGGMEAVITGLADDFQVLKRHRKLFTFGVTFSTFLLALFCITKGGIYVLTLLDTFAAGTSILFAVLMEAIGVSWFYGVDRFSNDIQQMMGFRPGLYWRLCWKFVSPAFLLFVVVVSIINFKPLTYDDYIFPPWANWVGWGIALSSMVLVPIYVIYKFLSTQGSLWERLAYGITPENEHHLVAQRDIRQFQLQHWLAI

[2] = biological target: T2, [3H]-norepinephrine reuptake (Rattus norvegicus, UniProt Q63380); assay: In vitro functional inhibition of [3H]-norepinephrine reuptake, hypothalamus synaptosomes; type: biochemical; conditions: for IC50: read-out: Noradrenaline inhibition pIC50 (converted)
T2 construct: the hypothalamus was rapidly removed and a crude synaptosomal fraction was prepared; from tissue; host or cells: rat hypothalamus, crude synaptosomal fraction
T2 sequence (Q63380 1-617): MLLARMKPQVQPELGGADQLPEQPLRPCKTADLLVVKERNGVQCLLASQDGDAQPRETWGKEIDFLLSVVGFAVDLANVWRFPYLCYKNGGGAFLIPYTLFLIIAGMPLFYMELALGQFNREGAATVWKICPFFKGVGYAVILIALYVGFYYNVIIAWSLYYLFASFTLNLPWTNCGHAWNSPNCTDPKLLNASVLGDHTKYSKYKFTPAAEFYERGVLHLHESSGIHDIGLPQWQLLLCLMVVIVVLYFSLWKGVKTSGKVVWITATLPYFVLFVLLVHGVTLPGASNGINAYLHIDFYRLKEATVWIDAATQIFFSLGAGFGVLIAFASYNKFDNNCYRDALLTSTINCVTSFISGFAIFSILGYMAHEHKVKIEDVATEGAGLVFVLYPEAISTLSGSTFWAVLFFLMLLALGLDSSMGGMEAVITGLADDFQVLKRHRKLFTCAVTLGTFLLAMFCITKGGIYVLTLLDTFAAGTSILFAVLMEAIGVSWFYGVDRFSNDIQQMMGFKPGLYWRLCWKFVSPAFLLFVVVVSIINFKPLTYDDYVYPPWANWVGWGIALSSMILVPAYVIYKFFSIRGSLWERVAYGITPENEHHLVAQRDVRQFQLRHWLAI
Procedure: In vitro functional inhibition of [^3H]-norepinephrine reuptake: male rats (Wistar Hsd/Cpb: WU; 175-200 g) were decapitated, the hypothalamus was rapidly removed and a crude synaptosomal fraction was prepared. Synaptosomes were pre-incubated in absence or presence of the test compound for 10 min at 37° C., in a medium containing the MAO inhibitor pargyline (7 μM). Subsequently, the synaptosomes were exposed to [^3H]-norepinephrine ([…] final concentration) for 15 min. [^3H]-Norepinephrine uptake was stopped by filtration with a harvester and the non-incorporated radioactivity was removed by an extensive washing programme. The filterplates with synaptosomes were dehydrated and the amount of [^3H]-norepinephrine present was determined by Betaplate liquid scintillation counting. […] Test compounds, 10^−2 M dissolved in DMSO, were diluted in Krebs Ringer buffer to test concentrations of 10^−8-10^−5 M. Further experimental details were as described (Coyle, 1969).

serotonin reuptake sites = serotonin reuptake sites (Homo sapiens, UniProt P31645); assay: In vitro affinity for serotonin reuptake sites; type: binding; conditions: for Ki: read-out: Serotonine binding pKi (converted)
Chain of serotonin reuptake sites (P31645 whole entry): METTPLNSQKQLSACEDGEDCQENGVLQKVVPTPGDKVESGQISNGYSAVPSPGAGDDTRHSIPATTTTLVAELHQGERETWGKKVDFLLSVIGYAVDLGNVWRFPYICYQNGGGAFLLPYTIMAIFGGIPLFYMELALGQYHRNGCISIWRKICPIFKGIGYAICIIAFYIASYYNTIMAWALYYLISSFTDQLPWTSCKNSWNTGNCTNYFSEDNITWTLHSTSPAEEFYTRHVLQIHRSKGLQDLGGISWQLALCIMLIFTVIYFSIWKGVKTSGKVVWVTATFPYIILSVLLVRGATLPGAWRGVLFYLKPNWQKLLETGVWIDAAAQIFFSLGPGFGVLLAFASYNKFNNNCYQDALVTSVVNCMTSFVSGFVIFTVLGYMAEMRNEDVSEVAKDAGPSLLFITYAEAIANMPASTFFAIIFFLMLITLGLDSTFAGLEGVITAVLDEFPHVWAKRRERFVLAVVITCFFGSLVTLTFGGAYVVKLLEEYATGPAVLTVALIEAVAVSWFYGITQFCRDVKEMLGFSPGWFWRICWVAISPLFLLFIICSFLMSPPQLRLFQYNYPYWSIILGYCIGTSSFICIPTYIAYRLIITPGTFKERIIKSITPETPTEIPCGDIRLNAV

[3H]-serotonin reuptake = biological target: T3, [3H]-serotonin reuptake (Rattus norvegicus, UniProt P31652); assay: In vitro functional inhibition of [3H]-serotonin reuptake, cerebral hemisphere synaptosomes; type: biochemical; conditions: for IC50: read-out: Serotonine inhibition pIC50 (converted)
T3 construct: the cerebral hemispheres were rapidly removed, and a P2-synaptosomal fraction was prepared; from tissue; host or cells: rat cerebral hemispheres, P2 synaptosomal fraction
T3 sequence (P31652 whole entry): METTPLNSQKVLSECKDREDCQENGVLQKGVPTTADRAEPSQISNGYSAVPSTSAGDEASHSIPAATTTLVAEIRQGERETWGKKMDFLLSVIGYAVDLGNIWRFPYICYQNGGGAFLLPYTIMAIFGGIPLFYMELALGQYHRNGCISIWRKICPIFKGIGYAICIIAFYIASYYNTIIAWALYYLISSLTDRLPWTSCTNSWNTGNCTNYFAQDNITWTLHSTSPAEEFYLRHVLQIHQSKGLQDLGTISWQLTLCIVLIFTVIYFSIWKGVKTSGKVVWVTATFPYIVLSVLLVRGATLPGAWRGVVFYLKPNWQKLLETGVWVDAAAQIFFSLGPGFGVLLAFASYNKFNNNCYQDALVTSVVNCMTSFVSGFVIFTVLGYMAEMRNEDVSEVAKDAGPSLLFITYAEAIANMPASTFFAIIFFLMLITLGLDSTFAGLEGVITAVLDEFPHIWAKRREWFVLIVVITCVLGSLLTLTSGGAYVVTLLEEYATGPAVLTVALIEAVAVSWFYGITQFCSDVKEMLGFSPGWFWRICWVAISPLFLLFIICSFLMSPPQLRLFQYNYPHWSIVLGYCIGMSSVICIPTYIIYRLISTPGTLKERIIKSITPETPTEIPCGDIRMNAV
Procedure: (§2) Subsequently, the synaptosomes were exposed to [^3H]-serotonin ([…] final concentration) for 10 min. [^3H]-Serotonine uptake was stopped by filtration with a harvester and the non-incorporated radioactivity was removed by extensive washing. Filter plates with synaptosomes were dehydrated, and the amount of [^3H]-serotonin present was determined by Betaplate liquid scintillation counting.

[3] = system: dopamine, noradrenaline and serotonine reuptake; assay: In vitro pharmacology, summary in words over binding and reuptake inhibition
Procedure: as §1, §2
In vitro functional inhibition of [^3H]-norepinephrine reuptake: male rats (Wistar Hsd/Cpb: WU; 175-200 g) were decapitated, the hypothalamus was rapidly removed and a crude synaptosomal fraction was prepared. […] [^3H]-Norepinephrine uptake was stopped by filtration with a harvester and the non-incorporated radioactivity was removed by an extensive washing programme. The filterplates with synaptosomes were dehydrated and the amount of [^3H]-norepinephrine present was determined by Betaplate liquid scintillation counting. […]

[4] = Plasma and brain concentrations and plasma pharmacokinetics after i.v. or p.o. administration to mice (LC-MS/MS); conditions: for AUC0→∞: Tend = ∞
Procedure: Proteins in 100 μl plasma were precipitated with acetonitrile, and 5 μl samples of the obtained solutions were analyzed. Complete brains were homogenized and centrifuged, and 10 μl samples of the supernatant were analyzed.
Liquid Chromatography-Tandem Mass Spectrometry (LC-MS/MS) was performed using a Sciex API4000 LC-MS/MS. Samples were quantified using extracted calibration samples, treated the same as the study samples, in the range of 1-5000 ng/ml and 5.0-5000 ng/brain for plasma and brain samples, respectively. Compound peak area was used for quantification. Calibration curves were fitted to the model y=A+Bx+Cx^2 (y is the peak area of the analyte, x is the nominal calibration level in ng/ml (plasma) or ng/g (brain), A is the intercept, B is the slope and C is the description of the curvature). 1/x^2 weighing was used. LC-MS/MS system performance was monitored using a reference solution injected at standard intervals. […] The Lower Limit Of Quantification (LLOQ) was established at 1.00 ng/ml and 5.00 ng/brain, for plasma and brain samples, respectively. Values below the LLOQ were given as best estimate. Reversed phase HPLC was performed using gradient elution by a Hypersil BDS C18 100×4.6 mm 3 μm analytical column, at 45° C. and with a flow of 1.00 ml/min: […]

[5] = Reduction of venlafaxine N-oxide in the human colon model TIM2; type: in vitro ADME; conditions: within 2 hours after dosing
Procedure: The human colon model TIM2 (TNO Intestinal Model 2): this model is a dynamic model for the human large intestine that simulates in vivo conditions. It is an artificial digestive system that has been validated by many studies (Minekus, 1999).
Suspended in 1% methylcellulose, venlafaxine-N-oxide (1 mg) was inserted into the lumen (120 ml) of the TIM2 model (see above, Minekus, 1999). Samples from the lumen and the dialysate (the latter being a model for the vascular bed of the intestines) were taken at various time intervals, and analyzed for venlafaxine-N-oxide and venlafaxine.

[6] = mice, labelled compound given 1.0 mg/kg i.v., 0.5 h
[7] = mice, labelled compound given 1.0 mg/kg i.v., 1 h
[8] = mice, labelled compound given 1.0 mg/kg i.v., 3 h
[9] = mice, labelled compound given 1.0 mg/kg i.v., 7 h
[10] = mice, labelled compound given 1.0 mg/kg i.v., 24 h
[11] = mice, labelled compound given 10 mg/kg p.o., 0.5 h
[12] = mice, labelled compound given 10 mg/kg p.o., 1 h
[13] = mice, labelled compound given 10 mg/kg p.o., 3 h
[14] = mice, labelled compound given 10 mg/kg p.o., 7 h
[15] = mice, labelled compound given 10 mg/kg p.o., 24 h
[16] = male, NMRI, mouse, in vivo, iv, 1 mg/kg
[17] = male, NMRI, mouse, in vivo, po, 10 mg/kg
[18] = male, NMRI, mouse, plasma, iv, 1 mg/kg
[19] = male, NMRI, mouse, plasma, po, 10 mg/kg

Chain of dopamine reuptake sites (Q01959 whole entry): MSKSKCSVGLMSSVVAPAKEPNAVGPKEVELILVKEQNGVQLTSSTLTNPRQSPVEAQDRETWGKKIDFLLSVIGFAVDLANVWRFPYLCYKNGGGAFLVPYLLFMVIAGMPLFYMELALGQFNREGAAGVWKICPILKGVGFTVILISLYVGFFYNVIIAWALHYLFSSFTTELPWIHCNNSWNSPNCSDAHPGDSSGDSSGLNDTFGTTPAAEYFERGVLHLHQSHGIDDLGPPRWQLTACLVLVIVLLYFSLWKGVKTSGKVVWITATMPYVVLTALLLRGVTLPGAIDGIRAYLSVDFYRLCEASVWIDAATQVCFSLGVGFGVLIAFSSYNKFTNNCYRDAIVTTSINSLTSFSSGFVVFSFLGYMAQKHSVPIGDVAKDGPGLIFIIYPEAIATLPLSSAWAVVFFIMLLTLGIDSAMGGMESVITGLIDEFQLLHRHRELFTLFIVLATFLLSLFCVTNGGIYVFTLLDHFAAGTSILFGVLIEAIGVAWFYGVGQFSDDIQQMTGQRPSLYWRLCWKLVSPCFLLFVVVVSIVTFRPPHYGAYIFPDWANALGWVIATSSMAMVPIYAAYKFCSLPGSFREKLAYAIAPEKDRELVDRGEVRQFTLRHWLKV

Ki (dopamine reuptake sites): > 31.6 µM
IC50 ([3H]-dopamine reuptake): > 31.6 µM
Ki [1]: > 31.6 µM
IC50 [2]: 39.8 µM
Ki (serotonin reuptake sites): 7.94 µM
IC50 ([3H]-serotonin reuptake): 20 µM
Compound: COc1ccc([C@H](C[N+](C)(C)[O-])C2(O)CCCCC2)cc1 [(R)-venlafaxine-N-oxide, R-Venlafaxine N-oxide]

Ki (dopamine reuptake sites): > 31.6 µM
IC50 ([3H]-dopamine reuptake): > 31.6 µM
Ki [1]: > 31.6 µM
IC50 [2]: > 31.6 µM
Ki (serotonin reuptake sites): 12.6 µM
IC50 ([3H]-serotonin reuptake): 25.1 µM
Compound: C[N+](C)([O-])C[C@H](c1ccc(O)cc1)C1(O)CCCCC1 [(S)—O-desmethyl-venlafaxine-N-oxide, O-desmethyl-S-venlafaxine N-oxide]

IC50 ([3H]-dopamine reuptake): 10 µM
IC50 [2]: 0.398 µM
Compound: CN(C)C[C@H](c1ccc(O)cc1)C1(O)CCCCC1 [(S)—O-desmethyl-venlafaxine, O-desmethyl-S-Venlafaxine, reference compound]

Compound: CN(C)CC(c1ccc(O)cc1)C1(O)CCCCC1 (racemic) [O-desmethylvenlafaxine, (R,S)-1-[2-(dimethylamino)-1-(4-hydroxyphenyl)ethyl]-cyclohexanol]
In vitro activity, in words [3]: equipotent with venlafaxine

Compound: COc1ccc(C(C[N+](C)(C)[O-])C2(O)CCCCC2)cc1 (racemic) [Venlafaxine-N-oxide, (R,S)-1-[2-oxido-(dimethylamino)-1-(4-methoxyphenyl)ethyl]-cyclohexanol]
Brain/plasma ratio ([4]; i.v. 1 mg/kg): 0.1
bioavailability ([4]; i.v., 10 mg/kg p.o. against 1 mg/kg i.v.): 23.3%
Conversion in vivo after administration ([4]; mice): reduced to the parent compound
Time after which venlafaxine concentrations in plasma and brain exceed those of the N-oxide ([4]; mice, after i.v. administration of venlafaxine-N-oxide): Approximately one hour
Factor by which venlafaxine concentrations in plasma and brain are higher than those of the N-oxide ([4]; mice, after oral administration of venlafaxine-N-oxide): 10 to 100
Plasma concentration of Venlafaxine [4, 6]: 22 ng/mL
Plasma concentration of Venlafaxine-N-oxide [4, 6]: 173 ng/mL
Plasma concentration of Venlafaxine [4, 7]: 8.0 ng/mL
Plasma concentration of Venlafaxine-N-oxide [4, 7]: 39 ng/mL
Plasma concentration of Venlafaxine [4, 8]: 0.59 ng/mL
Plasma concentration of Venlafaxine-N-oxide [4, 8]: 7.3 ng/mL
Plasma concentration of Venlafaxine [4, 9]: 0 ng/mL
Plasma concentration of Venlafaxine-N-oxide [4, 9]: 0.16 ng/mL
Plasma concentration of Venlafaxine [4, 10]: 0 ng/mL
Plasma concentration of Venlafaxine-N-oxide [4, 10]: 0 ng/mL
Plasma concentration of Venlafaxine [4, 11]: 72 ng/mL
Plasma concentration of Venlafaxine-N-oxide [4, 11]: 840 ng/mL
Plasma concentration of Venlafaxine [4, 12]: 117 ng/mL
Plasma concentration of Venlafaxine-N-oxide [4, 12]: 183 ng/mL
Plasma concentration of Venlafaxine [4, 13]: 77 ng/mL
Plasma concentration of Venlafaxine-N-oxide [4, 13]: 38 ng/mL
Plasma concentration of Venlafaxine [4, 14]: 3.3 ng/mL
Plasma concentration of Venlafaxine-N-oxide [4, 14]: 0.75 ng/mL
Plasma concentration of Venlafaxine [4, 15]: 0.63 ng/mL
Plasma concentration of Venlafaxine-N-oxide [4, 15]: 0.12 ng/mL
Brain penetration ([4]; mouse, in vivo): hardly penetrates the brain
VD ([4]; mouse, in vivo, iv, 1 mg/kg): 3 L/kg
clearance ([4]; mouse, in vivo, iv, 1 mg/kg): 46.1 mL/min/kg
t1/2 ([4]; plasma, i.v. 1 mg/kg): 48 min
AUC0→end ([4]; plasma, i.v. 1 mg/kg, Tend = 7 hrs): 361.6 ng·h/mL
AUC0→∞ ([4]; plasma, i.v. 1 mg/kg): 361.7 ng·h/mL
Cmax (C0) ([4]; plasma, i.v. 1 mg/kg, extrapolated to T0 (time zero)): 1205.2 (C0)* ng/ml
Cmax ([4]; plasma, p.o. 10 mg/kg): 1040.0 ng/mL
t1/2 ([4]; plasma, p.o. 10 mg/kg): 186 min
AUC0→end ([4]; plasma, p.o. 10 mg/kg, Tend = 24 hrs): 841.6 ng·h/mL
AUC0→∞ ([4]; plasma, p.o. 10 mg/kg): 842.2 ng·h/mL
Reduction to venlafaxine in TIM2 [5]: nearly quantitatively reduced to venlafaxine
Dopamine binding pKi (dopamine reuptake sites): <4.5
Dopamine inhibition pIC50 ([3H]-dopamine reuptake): 4.5
Noradrenaline binding pKi [1]: <4.5
Noradrenaline inhibition pIC50 [2]: 4.9
Serotonine binding pKi (serotonin reuptake sites): 5.5
Serotonine inhibition pIC50 ([3H]-serotonin reuptake): 4.9

IC50 ([3H]-dopamine reuptake): 5.01 µM
IC50 [2]: 0.398 µM
Compound: CN(C)C[C@@H](c1ccc(O)cc1)C1(O)CCCCC1 [(R)—O-desmethyl-venlafaxine, O-desmethyl-R-Venlafaxine, reference compound]

Compound: COc1ccc(C(CN(C)C)C2(O)CCCCC2)cc1 (racemic) [Venlafaxine, (R,S)-1-(2-(Dimethylamino)-1-(4-methoxyphenyl)ethyl)cyclohexanol, reference compound]
Kp [4, 16]: 3.1
half-life [4, 16]: 48 min
Kp [4, 17]: 3.4
half-life [4, 17]: 54 min
AUC [4, 18]: 194 ng·h/mL
AUC(0-inf) [4, 18]: 195 ng·h/mL
Cmax [4, 18]: 408 ng/mL
Tmax [4, 18]: 0 min
Vd [4, 18]: 6.2 L/kg
clearance [4, 18]: 85.6 mL/min/kg
bioavailability ([4]; male, NMRI, mouse, plasma, oral, 10 mg/kg): 48.7%
AUC [4, 19]: 943 ng·h/mL
AUC(0-inf) [4, 19]: 948 ng·h/mL
Cmax [4, 19]: 630 ng/mL
Tmax [4, 19]: 12 min
N-oxide found in brain ([4]; mice, after administration of venlafaxine): only traces
In vitro activity, in words [3]: most potent as inhibitor of serotonine reuptake

Ki (dopamine reuptake sites): > 31.6 µM
IC50 ([3H]-dopamine reuptake): > 31.6 µM
Ki [1]: > 31.6 µM
IC50 [2]: > 31.6 µM
Ki (serotonin reuptake sites): 10 µM
IC50 ([3H]-serotonin reuptake): 39.8 µM
Compound: C[N+](C)([O-])C[C@@H](c1ccc(O)cc1)C1(O)CCCCC1 [(R)—O-desmethyl-venlafaxine-N-oxide, O-Desmethyl-R-venlafaxine N-oxide]

Ki (dopamine reuptake sites): > 31.6 µM
IC50 ([3H]-dopamine reuptake): > 31.6 µM
Ki [1]: > 31.6 µM
IC50 [2]: > 31.6 µM
Ki (serotonin reuptake sites): 6.31 µM
IC50 ([3H]-serotonin reuptake): 15.8 µM
Compound: COc1ccc([C@@H](C[N+](C)(C)[O-])C2(O)CCCCC2)cc1 [(S)-venlafaxine-N-oxide, S-Venlafaxine N-oxide]
